Laboratory results as given in the supplement of paper PMC10307832.

Experiments:
Assay in all cases: relative viability (nuclei count vs DMSO), 5 days (fraction); higher = more cells survive
Seliciclib + Tozasertib = compound: CC[C@H](CO)Nc1nc(NCc2ccccc2)c2ncn(C(C)C)c2n1 [Seliciclib] + Cc1cc(Nc2cc(N3CCN(C)CC3)nc(Sc3ccc(NC(=O)C4CC4)cc3)n2)n[nH]1 [Tozasertib] (partner 0.1 µM)
Method in brief: (§1)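 Lung cancer cell lines in 1536-well plates got either a single drug or a fixed anchor-drug dose together with five library-drug doses (not always all listed) in √10 steps, by pin tool, on the day after seeding. Nuclei were counted after 5 days, and relative viability is the treated-to-vehicle ratio of nuclei counts. Values are medians of duplicate plates.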

Seliciclib + Crizotinib = compound: CC[C@H](CO)Nc1nc(NCc2ccccc2)c2ncn(C(C)C)c2n1 [Seliciclib] + C[C@@H](Oc1cc(-c2cnn(C3CCNCC3)c2)cnc1N)c1c(Cl)ccc(F)c1Cl [Crizotinib] (partner 1 µM)
Method in brief: as §1

Seliciclib + Lapatinib = compound: CC[C@H](CO)Nc1nc(NCc2ccccc2)c2ncn(C(C)C)c2n1 [Seliciclib] + CS(=O)(=O)CCNCc1ccc(-c2ccc3ncnc(Nc4ccc(OCc5cccc(F)c5)c(Cl)c4)c3c2)o1 [Lapatinib] (partner 2 µM)
Method in brief: as §1

Seliciclib + Decitabine = compound: CC[C@H](CO)Nc1nc(NCc2ccccc2)c2ncn(C(C)C)c2n1 [Seliciclib] + Nc1ncn([C@H]2C[C@H](O)[C@@H](CO)O2)c(=O)n1 [Decitabine] (partner 2 µM)
Method in brief: as §1

Cell Line	relative viability (Seliciclib + Tozasertib; first compound 0.08 µM)	relative viability (Seliciclib + Tozasertib; first compound 0.253 µM)	relative viability (Seliciclib + Tozasertib; first compound 0.8 µM)	relative viability (Seliciclib + Tozasertib; first compound 2.53 µM)	relative viability (Seliciclib + Tozasertib; first compound 8 µM)	relative viability (Seliciclib + Crizotinib; first compound 0.08 µM)	relative viability (Seliciclib + Crizotinib; first compound 0.253 µM)	relative viability (Seliciclib + Crizotinib; first compound 0.8 µM)	relative viability (Seliciclib + Crizotinib; first compound 2.53 µM)	relative viability (Seliciclib + Crizotinib; first compound 8 µM)	relative viability (Seliciclib + Lapatinib; first compound 0.08 µM)	relative viability (Seliciclib + Lapatinib; first compound 0.253 µM)	relative viability (Seliciclib + Lapatinib; first compound 0.8 µM)	relative viability (Seliciclib + Lapatinib; first compound 2.53 µM)	relative viability (Seliciclib + Lapatinib; first compound 8 µM)	relative viability (Seliciclib + Decitabine; first compound 0.08 µM)	relative viability (Seliciclib + Decitabine; first compound 0.253 µM)	relative viability (Seliciclib + Decitabine; first compound 0.8 µM)	relative viability (Seliciclib + Decitabine; first compound 2.53 µM)	relative viability (Seliciclib + Decitabine; first compound 8 µM)
HCC-366	0.135	0.0662	0.155	0.387	0.0931	0.477	0.418	0.497	0.946	0.354	1.01	1.15	0.987	1.22	0.863	0.357	0.297	0.333	0.414	0.297
HCC-827	0.415	0.413	0.42	0.383	0.324	0.909	0.914	0.911	0.931	0.839	0.208	0.246	0.203	0.225	0.188	0.337	0.36	0.327	0.287	0.273
HOP-62	0.388	0.354	0.38	0.377	0.244	1.02	0.981	0.976	0.781	0.898	0.937	0.931	1.04	1.06	0.864	0.199	0.177	0.223	0.235	0.253
IA-LM						0.596	1.17	0.92	0.906	0.622	0.537	1.07	0.719	0.977	0.82					
LC-2-ad	0.55	0.479	0.429	0.426	0.438	0.442	0.456	0.479	0.46	0.404	0.948	1.15	0.895	0.829	0.857	0.752	0.95	0.717	0.812	0.721
LCLC-97TM1	0.355	0.248	0.243	0.168	0.153	0.295	0.366	0.463		0.252	1.12	1.71	1.36		0.364	0.237	0.187	0.189	0.231	0.201
LCLC-103H	0.443	0.583	0.532	0.434	0.399	1.02	1.04	0.955	0.975	0.919						0.781	0.727	0.755	0.735	0.644
LK-2	0.203	0.154	0.17	0.175	0.168	0.246	0.227	0.205	0.227	0.249	0.946	0.91	0.871	0.747	0.452	0.359	0.276	0.309	0.166	0.263
LOU-NH91	0.638	0.686	0.583	0.62	0.515	0.721	0.743	0.678	0.673	0.685	0.743	0.682	0.729	0.6	0.681		0.795	0.784	0.785	0.693
LU99A	0.282	0.29	0.32	0.209	0.205	0.477	0.544	0.52	0.422	0.4	1.01	0.923	1.02	0.666	0.537	0.914	0.777	0.978	0.837	0.739
LXF-289	0.189	0.192	0.203	0.18	0.158	0.82	0.871	0.779	0.835	0.638	0.908	1.04	0.806	0.891	0.791	0.348	0.299	0.403	0.39	0.39
NCI-H441	0.729	0.598	0.704	0.513	0.406	0.896	0.631	0.833	0.66	0.519						0.262	0.265	0.258	0.201	0.256
NCI-H1299						0.983	1.07	0.935	0.993	0.943	0.953	1.06	0.997	0.962	0.948					
NCI-H1395	0.738	0.718	0.719	0.718	0.69						1.03	0.811	1.09	0.871	0.861	0.729	0.621	0.681		0.705
NCI-H1563						0.832	0.73	0.889	0.899	0.836	1.03	0.842	0.957	0.851	0.845					
NCI-H1648	0.531	0.825	0.413	0.362	0.364											0.486	0.615	0.605	0.45	0.473
NCI-H1703						0.643	0.609	0.563	0.635	0.556	1.07	0.861	1.03	1.14	0.846					
NCI-H1792						0.837	1.01	0.82	0.873	0.919	0.947	0.889	0.855	0.776	0.846	0.45	0.506	0.608		0.556
NCI-H1793	0.329	0.337	0.333	0.501	0.234						0.888	0.54	0.583	0.77	0.655	0.496	0.47	0.477	0.539	0.529
NCI-H2228	0.313	0.318	0.267	0.241	0.178	0.505	0.414	0.383	0.672	0.396	1.07	1.35	1.02	1.2	0.847					
SW 900	0.79	0.689	0.488	0.401	0.307											0.45	0.403	0.457	0.478	0.346
